Assay results as given in ChEMBL document CHEMBL1144946, “4-Amino-2-(aryl)-butylbenzamides and Their conformationally constrained analogues. Potent antagonists of the human neurokinin-2 (NK(2)) receptor” (Bioorg Med Chem Lett, 2003).

Columns and labels:
[1] = organism: Oryctolagus cuniculus; assay: Ability to antagonise the contractile effects of the selective NK2 receptor agonist [B-ala8]NKA in the rabbit pulmonary artery (RPA); format: functional; conditions: read-out: pA2 (converted)
[2] = biological target: T1, Substance-K receptor (Homo sapiens, UniProt P21452); assay: Binding affinity for human tachykinin receptor 2 expressed in CHO cells using [125I]- NKA radioligand; format: cell-based
T1 sequence (P21452 whole entry): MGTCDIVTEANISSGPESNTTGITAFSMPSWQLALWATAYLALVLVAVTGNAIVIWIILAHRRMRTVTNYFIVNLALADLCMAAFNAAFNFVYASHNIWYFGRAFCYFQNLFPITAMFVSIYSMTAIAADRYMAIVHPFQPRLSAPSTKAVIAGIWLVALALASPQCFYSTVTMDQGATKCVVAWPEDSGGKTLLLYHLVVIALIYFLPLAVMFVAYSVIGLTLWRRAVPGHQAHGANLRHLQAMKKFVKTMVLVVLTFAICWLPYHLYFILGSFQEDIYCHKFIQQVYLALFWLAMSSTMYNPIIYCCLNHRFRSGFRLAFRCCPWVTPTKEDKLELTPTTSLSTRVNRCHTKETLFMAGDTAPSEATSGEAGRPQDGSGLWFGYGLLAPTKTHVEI

[3] = biological target: T1, Substance-K receptor; assay: Binding affinity towards human Tachykinin receptor 2 using [125I]- NKA radioligand expressed in CHO cells; format: cell-based
[4] = biological target: T2, Substance-K receptor (Rattus norvegicus) (UniProt P16610); assay: Binding affinity towards […] using [125I]- NKA radioligand expressed in rat duodenum at 100 nM
T2 sequence (whole entry): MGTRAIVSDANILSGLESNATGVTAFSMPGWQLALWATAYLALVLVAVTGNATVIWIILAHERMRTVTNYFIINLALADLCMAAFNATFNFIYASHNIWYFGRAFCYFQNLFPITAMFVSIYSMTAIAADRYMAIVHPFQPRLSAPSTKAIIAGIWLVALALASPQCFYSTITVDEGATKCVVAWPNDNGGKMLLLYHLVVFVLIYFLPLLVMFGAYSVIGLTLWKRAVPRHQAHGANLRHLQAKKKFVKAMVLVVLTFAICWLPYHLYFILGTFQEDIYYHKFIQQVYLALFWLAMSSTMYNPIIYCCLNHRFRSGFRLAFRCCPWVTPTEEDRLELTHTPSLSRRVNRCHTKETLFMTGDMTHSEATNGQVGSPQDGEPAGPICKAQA

| SMILES | Kb [1] [nM] | pIC50 [2] | pIC50 [3] | inhibition [4] [%] |
| --- | --- | --- | --- | --- |
| COc1ccccc1C(=O)N1CCCC(CCN2CC(N3CCOCC3)C2)(c2ccc(Cl)c(Cl)c2)C1 (stereo not given) | 20 | – | – | – |
| CN(CC(CCN1CC(N2CCOCC2)C1)c1ccc(Cl)c(Cl)c1)C(=O)c1ccccc1 (stereo not given) | 1.26 | 7.7 | – | – |
| CN(CC(CCN1CCC(n2ccnc2)CC1)c1ccc(Cl)c(Cl)c1)C(=O)c1ccccc1 (stereo not given) | 5.01 | 7.7 | – | – |
| CC(=O)NC1(c2ccccc2)CCN(CCC(CN(C)C(=O)c2ccccc2)c2ccc(Cl)c(Cl)c2)CC1 (stereo not given) | 0.794 | – | 8.9 | – |
| O=C(c1ccccc1)N1CCC(CCN2CC(N3CCOCC3)C2)(c2ccc(Cl)c(Cl)c2)C1 (stereo not given) | – | 7.5 | – | – |
| CN(CC(CCN1CCCC(n2c(=O)[nH]c3ccccc32)C1)c1ccc(Cl)c(Cl)c1)C(=O)c1ccccc1 (stereo not given) | – | 7.1 | – | – |
| CN(CC(CCN1CCC(c2ccccc2)CC1)c1ccc(Cl)c(Cl)c1)C(=O)c1ccccc1 (stereo not given) | – | < 7 | – | – |
| CN(CC(CCN1CCC(c2nc3ccccc3[nH]2)CC1)c1ccc(Cl)c(Cl)c1)C(=O)c1ccccc1 (stereo not given) | 50.1 | 7.3 | – | – |
| O=S(=O)(c1ccccc1)N1CCC(CCN2CC(N3CCOCC3)C2)(c2ccc(Cl)c(Cl)c2)C1 (stereo not given) | 63.1 | 6.7 | – | – |
| CN(CC(CCN1CCCC(n2c(O)nc3ccccc32)CC1)c1ccc(Cl)c(Cl)c1)C(=O)c1ccccc1 (stereo not given) | 3.98 | 8.4 | – | – |
| O=C(CC1CC1)N1CCC(CCN2CC(N3CCOCC3)C2)(c2ccc(Cl)c(Cl)c2)C1 (stereo not given) | – | 6.3 | – | – |
| O=C(c1ccccc1)N1CC(CCN2CC(N3CCOCC3)C2)(c2ccc(Cl)c(Cl)c2)C1 | 7.94 | 7.2 | – | – |
| CN(CC(CCN1CCC(n2cncn2)CC1)c1ccc(Cl)c(Cl)c1)C(=O)c1ccccc1 (stereo not given) | 79.4 | 6.8 | – | – |
| CN(CC(CCN1CCC(O)(c2ccccc2)CC1)c1ccc(Cl)c(Cl)c1)C(=O)c1ccccc1 (stereo not given) | 0.316 | 8.9 | – | – |
| CN(CC(CCN1CCC(O)(c2ncc[nH]2)CC1)c1ccc(Cl)c(Cl)c1)C(=O)c1ccccc1 (stereo not given) | – | 6.6 | – | – |
| CN(CC(CCN1CCC(n2c(O)nc3ccccc32)C1)c1ccc(Cl)c(Cl)c1)C(=O)c1ccccc1 (stereo not given) | – | 7.4 | – | – |
| CN(CC(CCN1CC(n2ccnc2)C1)c1ccc(Cl)c(Cl)c1)C(=O)c1ccccc1 (stereo not given) | 25.1 | 6.8 | – | – |
| CCN(CC)C(=O)C1CCCN(CCC(CN(C)C(=O)c2ccccc2)c2ccc(Cl)c(Cl)c2)C1 (stereo not given) | – | – | – | 61 |
| CN(CC(CCN1CCC(n2c(O)nc3ccccc32)CC1)c1ccc(Cl)c(Cl)c1)C(=O)c1ccccc1 (stereo not given) | 3.98 | 8.9 | – | 81 |
| CN(CC(CCN1CCC(n2cnc3ccccc32)CC1)c1ccc(Cl)c(Cl)c1)C(=O)c1ccccc1 (stereo not given) | 2.51 | 8.1 | – | – |
| CN(CC(CCN1CCC(O)CC1)c1ccc(Cl)c(Cl)c1)C(=O)c1ccccc1 (stereo not given) | – | 6.4 | – | – |
| CN(CC(CCN1CCCCC1)c1ccc(Cl)c(Cl)c1)C(=O)c1ccccc1 (stereo not given) | – | 6.3 | – | – |
